Reference: ChEMBL document CHEMBL5104202, “Structure-Uptake Relationship Studies of Oxazolidinones in Gram-Negative ESKAPE Pathogens” (J Med Chem, 2022)
pIC50: −log10 of the molar value.

Key:
Format in all cases: functional, organism-based
Acinetobacter baumannii [1] = experiment: Antibacterial activity against efflux pump lacking/recombinant OM pore producing Acinetobacter baumannii assessed as inhibition of bacterial growth
Escherichia coli [2] = experiment: Antibacterial activity against recombinant OM pore producing Escherichia coli assessed as inhibition of bacterial growth
Acinetobacter baumannii [3] = experiment: Antibacterial activity against wild type Acinetobacter baumannii assessed as inhibition of bacterial growth
Escherichia coli [4] = experiment: Antibacterial activity against efflux pump lacking Escherichia coli assessed as inhibition of bacterial growth
Pseudomonas aeruginosa [5] = experiment: Antibacterial activity against efflux pump lacking/recombinant OM pore producing Pseudomonas aeruginosa assessed as inhibition of bacterial growth
Escherichia coli [6] = experiment: Antibacterial activity against efflux pump lacking/recombinant OM pore producing Escherichia coli assessed as inhibition of bacterial growth
Pseudomonas aeruginosa [7] = experiment: Antibacterial activity against recombinant OM pore producing Pseudomonas aeruginosa assessed as inhibition of bacterial growth
Acinetobacter baumannii [8] = experiment: Antibacterial activity against recombinant OM pore producing Acinetobacter baumannii assessed as inhibition of bacterial growth
Pseudomonas aeruginosa [9] = experiment: Antibacterial activity against efflux pump lacking Pseudomonas aeruginosa assessed as inhibition of bacterial growth
Pseudomonas aeruginosa [10] = experiment: Antibacterial activity against wild type Pseudomonas aeruginosa assessed as inhibition of bacterial growth
Escherichia coli [11] = experiment: Antibacterial activity against wild type Escherichia coli assessed as inhibition of bacterial growth
Acinetobacter baumannii [12] = experiment: Antibacterial activity against efflux pump lacking Acinetobacter baumannii assessed as inhibition of bacterial growth

O=Cc1ccc(-c2ccc(N3C[C@H](CO)OC3=O)cc2F)cc1
pIC50 (Acinetobacter baumannii [1]): 5.92
pIC50 (Escherichia coli [2]): 5.30
pIC50 (Acinetobacter baumannii [3]): 4.74
pIC50 (Escherichia coli [4]): 6.22
pIC50 (Pseudomonas aeruginosa [5]): 7.70
pIC50 (Escherichia coli [6]): 6.30
pIC50 (Pseudomonas aeruginosa [7]): 5.23
pIC50 (Acinetobacter baumannii [8]): 4.77
pIC50 (Pseudomonas aeruginosa [9]): 5.96
pIC50 (Pseudomonas aeruginosa [10]): < 4.00
pIC50 (Escherichia coli [11]): 4.18
pIC50 (Acinetobacter baumannii [12]): 5.96

CC(=O)OCC#Cc1ccc(N2C[C@H](CO)OC2=O)cc1F
pIC50 (Acinetobacter baumannii [1]): < 4.00
pIC50 (Escherichia coli [2]): 4.35
pIC50 (Acinetobacter baumannii [3]): < 4.00
pIC50 (Escherichia coli [4]): 4.14
pIC50 (Pseudomonas aeruginosa [5]): < 4.00
pIC50 (Escherichia coli [6]): 4.40
pIC50 (Pseudomonas aeruginosa [7]): < 4.00
pIC50 (Acinetobacter baumannii [8]): < 4.00
pIC50 (Pseudomonas aeruginosa [9]): < 4.00
pIC50 (Pseudomonas aeruginosa [10]): < 4.00
pIC50 (Escherichia coli [11]): < 4.00
pIC50 (Acinetobacter baumannii [12]): < 4.00

O=C1NCCN1CC#Cc1ccc(N2C[C@H](CO)OC2=O)cc1F
pIC50 (Acinetobacter baumannii [1]): < 4.00
pIC50 (Escherichia coli [2]): < 4.00
pIC50 (Acinetobacter baumannii [3]): < 4.00
pIC50 (Escherichia coli [4]): 4.19
pIC50 (Pseudomonas aeruginosa [5]): < 4.00
pIC50 (Escherichia coli [6]): 4.41
pIC50 (Pseudomonas aeruginosa [7]): < 4.00
pIC50 (Acinetobacter baumannii [8]): < 4.00
pIC50 (Pseudomonas aeruginosa [9]): < 4.00
pIC50 (Pseudomonas aeruginosa [10]): < 4.00
pIC50 (Escherichia coli [11]): < 4.00
pIC50 (Acinetobacter baumannii [12]): < 4.00

O=C1O[C@@H](CO)CN1c1ccc(-c2ccccc2)c(F)c1
pIC50 (Acinetobacter baumannii [1]): 5.72
pIC50 (Escherichia coli [2]): 5.70
pIC50 (Acinetobacter baumannii [3]): 4.74
pIC50 (Escherichia coli [4]): 6.40
pIC50 (Pseudomonas aeruginosa [5]): 5.85
pIC50 (Escherichia coli [6]): 6.52
pIC50 (Pseudomonas aeruginosa [7]): 4.88
pIC50 (Acinetobacter baumannii [8]): 5.26
pIC50 (Pseudomonas aeruginosa [9]): 5.64
pIC50 (Pseudomonas aeruginosa [10]): < 4.00
pIC50 (Escherichia coli [11]): 4.74
pIC50 (Acinetobacter baumannii [12]): 5.64

Cc1nn(C)c(C)c1C#Cc1ccc(N2C[C@H](CO)OC2=O)cc1F
pIC50 (Acinetobacter baumannii [1]): < 4.00
pIC50 (Escherichia coli [2]): 5.92
pIC50 (Acinetobacter baumannii [3]): < 4.00
pIC50 (Escherichia coli [4]): 4.06
pIC50 (Pseudomonas aeruginosa [5]): < 4.00
pIC50 (Escherichia coli [6]): 5.47
pIC50 (Pseudomonas aeruginosa [7]): < 4.00
pIC50 (Acinetobacter baumannii [8]): < 4.00
pIC50 (Pseudomonas aeruginosa [9]): < 4.00
pIC50 (Pseudomonas aeruginosa [10]): < 4.00
pIC50 (Escherichia coli [11]): < 4.00
pIC50 (Acinetobacter baumannii [12]): < 4.00

O=C(O)c1cncc(-c2ccc(N3C[C@H](CO)OC3=O)cc2F)c1
pIC50 (Acinetobacter baumannii [1]): < 4.00
pIC50 (Escherichia coli [2]): < 4.00
pIC50 (Acinetobacter baumannii [3]): < 4.00
pIC50 (Escherichia coli [4]): < 4.00
pIC50 (Pseudomonas aeruginosa [5]): < 4.00
pIC50 (Escherichia coli [6]): 4.37
pIC50 (Pseudomonas aeruginosa [7]): < 4.00
pIC50 (Acinetobacter baumannii [8]): < 4.00
pIC50 (Pseudomonas aeruginosa [9]): < 4.00
pIC50 (Pseudomonas aeruginosa [10]): < 4.00
pIC50 (Escherichia coli [11]): < 4.00
pIC50 (Acinetobacter baumannii [12]): < 4.00

COC(=O)Cn1cc(C#Cc2ccc(N3C[C@H](CO)OC3=O)cc2F)cn1
pIC50 (Acinetobacter baumannii [1]): 4.21
pIC50 (Escherichia coli [2]): 4.28
pIC50 (Acinetobacter baumannii [3]): < 4.00
pIC50 (Escherichia coli [4]): 4.05
pIC50 (Pseudomonas aeruginosa [5]): < 4.00
pIC50 (Escherichia coli [6]): 4.44
pIC50 (Pseudomonas aeruginosa [7]): < 4.00
pIC50 (Acinetobacter baumannii [8]): < 4.00
pIC50 (Pseudomonas aeruginosa [9]): < 4.00
pIC50 (Pseudomonas aeruginosa [10]): < 4.00
pIC50 (Escherichia coli [11]): < 4.00
pIC50 (Acinetobacter baumannii [12]): < 4.00

C[n+]1ccc2ccc(-c3ccc(N4C[C@H](CO)OC4=O)cc3F)cc2c1
pIC50 (Acinetobacter baumannii [1]): 5.03
pIC50 (Escherichia coli [2]): 4.68
pIC50 (Acinetobacter baumannii [3]): < 4.00
pIC50 (Escherichia coli [4]): 5.25
pIC50 (Pseudomonas aeruginosa [5]): < 4.00
pIC50 (Escherichia coli [6]): 5.02
pIC50 (Pseudomonas aeruginosa [7]): < 4.00
pIC50 (Acinetobacter baumannii [8]): 4.56
pIC50 (Pseudomonas aeruginosa [9]): < 4.00
pIC50 (Pseudomonas aeruginosa [10]): < 4.00
pIC50 (Escherichia coli [11]): < 4.00
pIC50 (Acinetobacter baumannii [12]): 4.31

O=C(O)CNCC#Cc1ccc(N2C[C@H](CO)OC2=O)cc1F
pIC50 (Acinetobacter baumannii [1]): < 4.00
pIC50 (Escherichia coli [2]): < 4.00
pIC50 (Acinetobacter baumannii [3]): < 4.00
pIC50 (Escherichia coli [4]): < 4.00
pIC50 (Pseudomonas aeruginosa [5]): < 4.00
pIC50 (Escherichia coli [6]): < 4.00
pIC50 (Pseudomonas aeruginosa [7]): < 4.00
pIC50 (Acinetobacter baumannii [8]): < 4.00
pIC50 (Pseudomonas aeruginosa [9]): < 4.00
pIC50 (Pseudomonas aeruginosa [10]): < 4.00
pIC50 (Escherichia coli [11]): < 4.00
pIC50 (Acinetobacter baumannii [12]): < 4.00

O=C1O[C@@H](CO)CN1c1ccc(-c2cccc(S(=O)(=O)C(F)(F)F)c2)c(F)c1
pIC50 (Acinetobacter baumannii [1]): 4.41
pIC50 (Escherichia coli [2]): 4.67
pIC50 (Acinetobacter baumannii [3]): < 4.00
pIC50 (Escherichia coli [4]): 4.71
pIC50 (Pseudomonas aeruginosa [5]): < 4.00
pIC50 (Escherichia coli [6]): 4.90
pIC50 (Pseudomonas aeruginosa [7]): < 4.00
pIC50 (Acinetobacter baumannii [8]): < 4.00
pIC50 (Pseudomonas aeruginosa [9]): < 4.00
pIC50 (Pseudomonas aeruginosa [10]): < 4.00
pIC50 (Escherichia coli [11]): < 4.00
pIC50 (Acinetobacter baumannii [12]): 4.31

NCC#Cc1ccc(N2C[C@H](CO)OC2=O)cc1F
pIC50 (Acinetobacter baumannii [1]): < 4.00
pIC50 (Escherichia coli [2]): < 4.00
pIC50 (Acinetobacter baumannii [3]): < 4.00
pIC50 (Escherichia coli [4]): < 4.00
pIC50 (Pseudomonas aeruginosa [5]): < 4.00
pIC50 (Escherichia coli [6]): < 4.00
pIC50 (Pseudomonas aeruginosa [7]): < 4.00
pIC50 (Acinetobacter baumannii [8]): < 4.00
pIC50 (Pseudomonas aeruginosa [9]): < 4.00
pIC50 (Pseudomonas aeruginosa [10]): < 4.00
pIC50 (Escherichia coli [11]): < 4.00
pIC50 (Acinetobacter baumannii [12]): < 4.00
